{"source": "patent US9146237B2", "about": "“In vitro assay method using immunological technique” (BASF Beauty Care Solutions France S.A.S., priority 2011, dated 2015)", "key": {"[1]": {"test_system": "intracellular procollagen", "experiment": "Procollagen assay by ELISA (PIPc kit) on collected lysis medium", "type": "cell-based, human", "conditions": "Example 4", "experimental": "A lysis step was carried out: 110 μl of an ammonium hydroxide solution at 20 mM for 10 minutes at room temperature and with stirring. The experiment was carried out without active ingredient on the one hand and with ascorbic acid solubilized in PBS at different concentrations from 0.1 to 100 μM. On the collected lysis medium, a procollagen assay (PIPc kit, TAKARA) by ELISA was carried out for determining the amount of intracellular procollagen (Table 4.2). A DNA assay (Picogreen kit, Invitrogen) was also carried out for rationalizing all of the measurements in each well to the quantity of viable cells. The amounts of collagen and procollagen measured were rationalized to the amount of DNA present in each well."}, "[2]": {"test_system": "type I collagen in the ECM", "experiment": "Assay of type I collagen directly on the ECM of fibroblast cultures (anticollagen I antibody, europium TRF)", "type": "cell-based, human", "experimental": "After 48 hours of culture post-confluency, the culture medium was removed and discarded. A lysis step was carried out: 110 μl of an ammonium hydroxide solution at 20 mM for 10 minutes at room temperature and with stirring. The lysate was collected and analysed. The double-stranded DNA contained in the lysate was assayed by using the bisbenzimide method (Picogreen Kit, Invitrogen). The collagen in the ECM was assayed directly on the ECM by using an anticollagen I antibody. A secondary antibody conjugated to europium was used with a detection solution and the fluorescence was measured. (Delfia® kit—Perkin Elmer). The fluorescence results were rationalized relative to the amount of dsDNA measured. The experiment was carried out without active ingredient on the one hand and with ascorbic acid solubilized in PBS at different concentrations from 0.1 to 100 μM. The experiment was carried out according to the protocol described in example 1 with fibroblasts extracted from a biopsy from a donor. The cells at confluency were incubated in the presence of the active ingredients for 48 hours at 37° C. under 0.5% CO2 or without active ingredient (control) for 48 hours at 37° C. under 0.5% CO2. […]"}}, "data": [{"smiles": "O=C1O[C@H]([C@@H](O)CO)C(O)=C1O", "note": "[Ascorbic acid]", "values": [{"measurement": "Procollagen concentration in the intracellular compartment versus untreated control", "setting": "[1]", "value": "less than that observed with the untreated control"}, {"measurement": "Effect on amount of collagen I in the ECM", "setting": "[2]; 50 μM, Example 6", "value": "significant increase in the amount of collagen I in the ECM"}, {"measurement": "Concentration up to which the effect on content of collagen I in the ECM is dose-dependent (threshold effect)", "setting": "[2]; Example 4, 0.1 to 100 μM", "value": "up to 50 μM"}]}]}
